The results in this text go back to patent US9145392B2, “Imidazole amines as modulators of kinase activity” (Merck Patent GmbH, priority 2011, dated 2015).

For orientation: IC50 means the concentration that inhibits the measured activity by half.

Chain of P70S6K (T412E mutant) (P23443 whole entry T412E): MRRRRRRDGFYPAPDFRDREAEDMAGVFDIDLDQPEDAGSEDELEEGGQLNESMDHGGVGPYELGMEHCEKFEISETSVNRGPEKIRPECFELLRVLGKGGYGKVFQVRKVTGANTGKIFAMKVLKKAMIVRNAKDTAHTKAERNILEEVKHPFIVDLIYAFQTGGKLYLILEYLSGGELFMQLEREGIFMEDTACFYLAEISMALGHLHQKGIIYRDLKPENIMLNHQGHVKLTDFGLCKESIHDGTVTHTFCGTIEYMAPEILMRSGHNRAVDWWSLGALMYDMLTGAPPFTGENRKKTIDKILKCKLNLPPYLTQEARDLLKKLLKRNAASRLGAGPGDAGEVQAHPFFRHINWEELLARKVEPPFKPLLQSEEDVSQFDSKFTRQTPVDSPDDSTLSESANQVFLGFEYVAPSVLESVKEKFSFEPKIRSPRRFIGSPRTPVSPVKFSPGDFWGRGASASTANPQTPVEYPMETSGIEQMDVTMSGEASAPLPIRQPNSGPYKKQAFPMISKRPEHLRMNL

The target of the experiment is P70S6K (T412E mutant) (Homo sapiens (Human), UniProt P23443, T412E). The experiment can be described thus: P70S6K enzyme assay. Particulars: read-out: IC50 p70S6K. Format: biochemical. The method, then:
P70S6K inhibitor compounds are diluted and plated in 96 well plates. […] The reaction is incubated for 90 min at 25° C., before the addition of 10 mM EDTA to stop the reaction. The proportion of substrate and product (phosphorylated) peptide is analysed on a Caliper Life Sciences Lab Chip 3000, using a pressure of −1.4 psi, and upstream and downstream voltages of −3000 and −700 respectively. Product peaks are resolved before substrate peaks on the resulting chromatograms.
Consider `Cn1cc(-c2ccc(F)c(C(F)(F)F)c2)nc1C1CCN(c2ncnc(N)c2-c2ccc(C(F)(F)F)cc2)CC1` [Compound 16, 6-{4-[4-(4-Fluoro-3-trifluoromethyl-phenyl)-1-methyl-1H-imidazol-2-yl]-piperidin-1-yl}-5-(4-trifluoromethyl-phenyl)-pyrimidin-4-ylamine], for which the IC50 came to 21 nM. For `Cn1cc(-c2ccc(F)c(C(F)(F)F)c2)nc1C1CCN(c2ncnc(N)c2-c2cnc(N)nc2)CC1` [Compound 28, 6′-{4-[4-(4-Fluoro-3-trifluoromethyl-phenyl)-1-methyl-1H-imidazol-2-yl]-piperidin-1-yl}-[5,5]bipyrimidinyl-2,4′-diamine], the IC50 stood at 4.4 nM. As for `CN(C)c1ncc(-c2c(N)ncnc2N2CCC(c3nc(-c4ccc(F)c(C(F)(F)F)c4)cn3C)CC2)cn1` [Compound 31, 6′-{4-[4-(4-Fluoro-3-trifluoromethyl-phenyl)-1-methyl-1H-imidazol-2-yl]-piperidin-1-yl}-N2,N2-dimethyl-[5,5]bipyrimidinyl-2,4′-diamine], the figure is 7.5 nM; as for `Cn1cc(-c2ccc(F)c(C(F)(F)F)c2)nc1C1CCN(c2ncncc2-c2ccc(F)cc2)CC1` [Compound 42, 5-(4-Fluoro-phenyl)-4-{4-[4-(4-fluoro-3-trifluoromethyl-phenyl)-1-methyl-1H-imidazol-2-yl]-piperidin-1-yl}-pyrimidine], 5.4 nM; as for `Cn1cc(-c2ccc(F)c(C(F)(F)F)c2)nc1C1CCN(c2ncnc(N)c2-c2ccc(CN)cc2)CC1` [Compound 32, 5-(4-Aminomethyl-phenyl)-6-{4-[4-(4-fluoro-3-trifluoromethyl-phenyl)-1-methyl-1H-imidazol-2-yl]-piperidin-1-yl}-pyrimidin-4-ylamine], 4.2 nM.

As to `COc1cccc(-c2c(N)ncnc2N2CCC(c3nc(-c4ccc(F)c(C(F)(F)F)c4)cn3C)CC2)c1` [Compound 29, 6-{4-[4-(4-Fluoro-3-trifluoromethyl-phenyl)-1-methyl-1H-imidazol-2-yl]-piperidin-1-yl}-5-(3-methoxyphenyl)-pyrimidin-4-ylamine], the IC50 amounted to 9.8 nM. As to `Cn1cc(-c2ccc(F)c(C(F)(F)F)c2)nc1C1CCN(c2ncnc(N)c2-c2ccccc2Cl)CC1` [Compound 24, 5-(2-Chlorophenyl)-6-{4-[4-(4-fluoro-3-trifluoromethyl-phenyl)-1-methyl-1H-imidazol-2-yl]-piperidin-1-yl}-pyrimidin-4-ylamine], the half-inhibitory concentration (IC50) was 5.3 nM. In the case of `Cn1cc(-c2ccc(F)c(C(F)(F)F)c2)nc1C1CCN(c2ncnc(N)c2-c2ccc(N3CCOCC3)nc2)CC1` [Compound 25, 6-{4-[4-(4-Fluoro-3-trifluoromethyl-phenyl)-1-methyl-1H-imidazol-2-yl]-piperidin-1-yl}-5-(6-morpholin-4-yl-pyridin-3-yl)-pyrimidin-4-ylamine], the IC50 is 190 nM. Regarding `Cn1cc(-c2ccc(F)c(C(F)(F)F)c2)nc1C1CCN(c2cc(N)ncn2)CC1` [Compound 12, 6-{4-[4-(4-Fluoro-3-trifluoromethyl-phenyl)-1-methyl-1H-imidazol-2-yl]-piperidin-1-yl}-pyrimidin-4-ylamine], the half-inhibitory concentration (IC50) amounted to 87 nM. Regarding `COc1ccc(-c2cnccc2N2CCC(c3nc(-c4cccc(C(F)(F)F)c4)c[nH]3)CC2)cc1` [Compound 35, 3-(4-methoxyphenyl)-4-(4-{4-[3-(trifluoromethyl)phenyl]-1H-imidazol-2-yl}piperidin-1-yl)pyridine], the IC50 was 9 nM.

With `COc1cncc(-c2c(N)ncnc2N2CCC(c3nc(-c4ccc(F)c(C(F)(F)F)c4)cn3C)CC2)c1` [Compound 47, 6-{4-[4-(4-Fluoro-3-trifluoromethyl-phenyl)-1-methyl-1H-imidazol-2-yl]-piperidin-1-yl}-5-(5-methoxy-pyridin-3-yl)-pyrimidin-4-ylamine], the IC50 came out at 4.3 nM. Consider `Cn1cc(-c2ccc(F)c(C(F)(F)F)c2)nc1C1CCN(c2ncnc(N)c2-c2ccc(F)c(F)c2)CC1` [Compound 30, 5-(3,4-Difluoro-phenyl)-6-{4-[4-(4-fluoro-3-trifluoromethyl-phenyl)-1-methyl-1H-imidazol-2-yl]-piperidin-1-yl}-pyrimidin-4-ylamine], for which the IC50 stood at 6.3 nM. For `Cn1cc(-c2ccc(F)c(C(F)(F)F)c2)nc1C1CCN(c2ncnc(N)c2-c2cccc(F)c2)CC1` [Compound 22, 5-(3-Fluoro-phenyl)-6-{4-[4-(4-fluoro-3-trifluoromethyl-phenyl)-1-methyl-1H-imidazol-2-yl]-piperidin-1-yl}-pyrimidin-4-ylamine], the IC50 is 1.6 nM. Next, `Cn1cc(-c2ccc(F)c(C(F)(F)F)c2)nc1C1CCN(c2ncnc(N)c2-c2ccccc2C#N)CC1` [Compound 18, 2-(4-Amino-6-{4-[4-(4-fluoro-3-trifluoromethyl-phenyl)-1-methyl-1H-imidazol-2-yl]-piperidin-1-yl}-pyrimidin-5-yl)-benzonitrile]: 250 nM; `Cn1cc(-c2ccc(F)c(C(F)(F)F)c2)nc1C1CCN(c2ncnc(N)c2-c2ccc(Cl)nc2)CC1` [Compound 50, 5-(6-Chloro-pyridin-3-yl)-6-{4-[4-(4-fluoro-3-trifluoromethyl-phenyl)-1-methyl-1H-imidazol-2-yl]-piperidin-1-yl}-pyrimidin-4-ylamine]: 4.5 nM.

As for `Cn1cc(-c2ccc(F)c(C(F)(F)F)c2)nc1C1CCN(c2ncnc(N)c2-c2ccc(F)nc2)CC1` [Compound 27, 5-(6-Fluoro-pyridin-3-yl)-6-{4-[4-(4-fluoro-3-trifluoromethyl-phenyl)-1-methyl-1H-imidazol-2-yl]-piperidin-1-yl}-pyrimidin-4-ylamine], the IC50 is 3 nM. Regarding `COC(=O)/C=C/c1c(N)ncnc1N1CCC(c2nc(-c3ccc(F)c(C(F)(F)F)c3)cn2C)CC1` [Compound 45, (E)-3-(4-Amino-6-{4-[4-(4-fluoro-3-trifluoromethyl-phenyl)-1-methyl-1H-imidazol-2-yl]-piperidin-1-yl}-pyrimidin-5-yl)-acrylic acid methyl ester], the half-inhibitory concentration (IC50) came to 3.5 nM. On to `CCc1c(N)ncnc1N1CCC(c2nc(-c3ccnc(C(F)(F)F)c3)cn2CCNC)CC1` [Compound 171, 5-ethyl-6-(4-(1-(2-(methylamino)ethyl)-4-(2-(trifluoromethyl)pyridin-4-yl)-1H-imidazol-2-yl)piperidin-1-yl)pyrimidin-4-amine], for which the IC50 was 0.6 nM. Turning to `Cn1c(-c2ccc(F)c(C(F)(F)F)c2)cnc1C1CCN(c2ncnc(N)c2Br)CC1` [Compound 2, 5-Bromo-6-{4-[5-(4-fluoro-3-trifluoromethyl-phenyl)-1-methyl-1H-imidazol-2-yl]-piperidin-1-yl}-pyrimidin-4-ylamine], the IC50 was found to be 57 nM. `COc1ccc(-c2c(N)ncnc2N2CCC(c3nc(-c4cccc(C(F)(F)F)c4)c[nH]3)CC2)cc1` [Compound 33, 5-(4-Methoxy-phenyl)-6-{4-[4-(3-trifluoromethyl-phenyl)-1H-imidazol-2-yl]-piperidin-1-yl}-pyrimidin-4-ylamine]: the half-maximal inhibitory concentration (IC50) amounted to 2.7 nM. Take `Cn1cc(-c2ccc(F)c(C(F)(F)F)c2)nc1C1CCN(c2ncnc(N)c2-c2cccc(Cl)c2)CC1` [Compound 51, 5-(3-Chloro-phenyl)-6-{4-[4-(4-fluoro-3-trifluoromethyl-phenyl)-1-methyl-1H-imidazol-2-yl]-piperidin-1-yl}-pyrimidin-4-ylamine]: the IC50 turned out to be 22 nM.

`FC(F)(F)c1cccc(-c2c[nH]c(C3CCN(c4ccncc4Br)CC3)n2)c1` [Compound 5, 3-bromo-4-(4-{4-[3-(trifluoromethyl)phenyl]-1H-imidazol-2-yl}piperidin-1-yl)pyridine]: the half-maximal inhibitory concentration (IC50) is 315 nM. For `Cn1cc(-c2ccc(F)c(C(F)(F)F)c2)nc1C1CCN(c2ncnc(N)c2-c2ccc(N3CCNCC3)nc2)CC1` [Compound 26, 6-{4-[4-(4-Fluoro-3-trifluoromethyl-phenyl)-1-methyl-1H-imidazol-2-yl]-piperidin-1-yl}-5-(6-piperazin-1-yl-pyridin-3-yl)-pyrimidin-4-ylamine], the IC50 is 1000 nM.

Turning to `Cn1cc(-c2ccc(F)c(C(F)(F)F)c2)nc1C1CCN(c2ncnc(N)c2/C=C/C(N)=O)CC1` [Compound 46, (E)-3-(4-Amino-6-{4-[4-(4-fluoro-3-trifluoromethyl-phenyl)-1-methyl-1H-imidazol-2-yl]-piperidin-1-yl}-pyrimidin-5-yl)-acrylamide], the half-maximal inhibitory concentration (IC50) was 14 nM. In the case of `CCOc1c(N)ncnc1N1CCC(c2nc(-c3ccc(F)c(Cl)c3)cn2CCN2CCCC2)CC1` [Compound 289], the IC50 came to 0.8 nM. Take `Cn1cc(-c2ccc(F)c(C(F)(F)F)c2)nc1C1CCN(c2ncnc(N)c2-c2ccccc2)CC1` [Compound 21, 6-{4-[4-(4-Fluoro-3-trifluoromethyl-phenyl)-1-methyl-1H-imidazol-2-yl]-piperidin-1-yl}-5-phenyl-pyrimidin-4-ylamine]: the IC50 amounted to 3.7 nM. As for `COc1ccc(-c2cncnc2N2CCC(c3nc(-c4cccc(C(F)(F)F)c4)c[nH]3)CC2)cc1` [Compound 34, 5-(4-Methoxy-phenyl)-4-{4-[4-(3-trifluoromethyl-phenyl)-1H-imidazol-2-yl]-piperidin-1-yl}-pyrimidine], the figure is 12 nM; as for `Cn1cc(-c2ccc(F)c(C(F)(F)F)c2)nc1C1CCN(c2ncnc(N)c2-c2ccccc2F)CC1` [Compound 23, 5-(2-Fluorophenyl)-6-{4-[4-(4-fluoro-3-trifluoromethyl-phenyl)-1-methyl-1H-imidazol-2-yl]-piperidin-1-yl}-pyrimidin-4-ylamine], 3 nM; as for `Cn1cc(-c2ccc(F)c(C(F)(F)F)c2)nc1C1CCN(c2ncnc(N)c2-c2ccc(C#N)c(F)c2)CC1` [Compound 52, 4-(4-Amino-6-{4-[4-(4-fluoro-3-trifluoromethyl-phenyl)-1-methyl-1H-imidazol-2-yl]-piperidin-1-yl}-pyrimidin-5-yl)-2-fluoro-benzonitrile], 5 nM.
